Molecular target: T1, human PAH with the R408W mutation (Homo sapiens, UniProt P00439, R408W)
T1 construct: expressed in transfected cells
T1 sequence (P00439 1-452 R408W): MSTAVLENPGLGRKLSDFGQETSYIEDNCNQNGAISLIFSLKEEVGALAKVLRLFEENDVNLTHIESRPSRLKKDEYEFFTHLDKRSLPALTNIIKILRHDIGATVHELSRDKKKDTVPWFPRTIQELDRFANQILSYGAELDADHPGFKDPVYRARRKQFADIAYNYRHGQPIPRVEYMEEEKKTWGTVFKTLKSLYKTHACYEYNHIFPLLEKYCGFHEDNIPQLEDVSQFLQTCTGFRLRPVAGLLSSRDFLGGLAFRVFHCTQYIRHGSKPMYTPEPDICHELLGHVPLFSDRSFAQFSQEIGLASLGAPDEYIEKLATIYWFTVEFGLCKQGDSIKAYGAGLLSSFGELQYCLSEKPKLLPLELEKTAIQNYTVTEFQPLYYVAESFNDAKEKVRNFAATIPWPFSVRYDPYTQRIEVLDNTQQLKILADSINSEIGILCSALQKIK
Assay: Cell Based Phenylalanine Flux Assay
Conditions: A375 cells expressing human R408W PAH; 24 hrs compound incubation; 13C-Tyrosine by LC-MS; average where tested multiple times; read-out: AC50

AC50 | Structure (SMILES)
> 5 µM | Cc1ncoc1C(=O)N1CCCc2[nH]cnc2[C@@H]1c1nc2ccccc2s1 [Example 2130, (R)-(4-(benzo[d]thiazol-2-yl)-7,8-dihydroimidazo[4,5-c]azepin-5(1H,4H,6H)-yl)(4-methyloxazol-5-yl)methanone]
0.5 to 1 µM | O=C(c1ocnc1C(F)(F)F)N1CCCc2[nH]cnc2[C@H]1c1nc2ccccc2s1 [Example 2131, (S)-(4-(benzo[d]thiazol-2-yl)-7,8-dihydroimidazo[4,5-c]azepin-5(1H,4H,6H)-yl)(4-(trifluoromethyl)oxazol-5-yl)methanone]
1 to 5 µM | O=C(c1ocnc1C(F)(F)F)N1CCCc2[nH]cnc2[C@@H]1c1nc2ccccc2s1 [Example 2132, (R)-(4-(benzo[d]thiazol-2-yl)-7,8-dihydroimidazo[4,5-c]azepin-5(1H,4H,6H)-yl)(4-(trifluoromethyl)oxazol-5-yl)methanone]
1 to 5 µM | O=C(c1oc(N2CCOCC2)nc1C(F)(F)F)N1CCCc2[nH]cnc2[C@H]1c1nc2ccccc2s1 [Example 2133, (S)-(4-(benzo[d]thiazol-2-yl)-7,8-dihydroimidazo[4,5-c]azepin-5(1H,4H,6H)-yl)(2-morpholino-4-(trifluoromethyl)oxazol-5-yl)methanone]
1 to 5 µM | O=C(c1oc(N2CCOCC2)nc1C(F)(F)F)N1CCCc2[nH]cnc2[C@@H]1c1nc2ccccc2s1 [Example 2134, (R)-(4-(benzo[d]thiazol-2-yl)-7,8-dihydroimidazo[4,5-c]azepin-5(1H,4H,6H)-yl)(2-morpholino-4-(trifluoromethyl)oxazol-5-yl)methanone]
< 0.5 µM | O=C(c1oc(CCC2CC2)nc1C(F)(F)F)N1CCCc2[nH]cnc2[C@H]1c1nc2ccccc2s1 [Example 2135, (S)-(4-(benzo[d]thiazol-2-yl)-7,8-dihydroimidazo[4,5-c]azepin-5(1H,4H,6H)-yl)(2-(2-cyclopropylethyl)-4-(trifluoromethyl)oxazol-5-yl)methanone]
0.5 to 1 µM | O=C(c1oc(CCC2CC2)nc1C(F)(F)F)N1CCCc2[nH]cnc2[C@@H]1c1nc2ccccc2s1 [Example 2136, (R)-(4-(benzo[d]thiazol-2-yl)-7,8-dihydroimidazo[4,5-c]azepin-5(1H,4H,6H)-yl)(2-(2-cyclopropylethyl)-4-(trifluoromethyl)oxazol-5-yl)methanone]
1 to 5 µM | O=C(c1oc(C2(O)CCC2)nc1C(F)(F)F)N1CCCc2[nH]cnc2[C@H]1c1nc2ccccc2s1 [Example 2137, (S)-(4-(benzo[d]thiazol-2-yl)-7,8-dihydroimidazo[4,5-c]azepin-5(1H,4H,6H)-yl)(2-(1-hydroxycyclobutyl)-4-(trifluoromethyl)oxazol-5-yl)methanone]
1 to 5 µM | O=C(c1oc(C2(O)CCC2)nc1C(F)(F)F)N1CCCc2[nH]cnc2[C@@H]1c1nc2ccccc2s1 [Example 2138, (R)-(4-(benzo[d]thiazol-2-yl)-7,8-dihydroimidazo[4,5-c]azepin-5(1H,4H,6H)-yl)(2-(1-hydroxycyclobutyl)-4-(trifluoromethyl)oxazol-5-yl)methanone]
> 5 µM | O=C(CCc1nccs1)N1CCc2[nH]cnc2[C@H]1c1nccs1 [Example 2139, (S)-3-(thiazol-2-yl)-1-(4-(thiazol-2-yl)-6,7-dihydro-1H-imidazo[4,5-c]pyridin-5(4H)-yl)propan-1-one]
< 0.5 µM | O=C(CCc1nccs1)N1CCc2[nH]cnc2[C@H]1c1ncc(-c2ccccc2)s1 [Example 2141]
> 5 µM | O=C(CCc1nccs1)N1CCc2[nH]cnc2[C@@H]1c1ncc(-c2ccccc2)s1 [Example 2142, (R)-1-(4-(5-phenylthiazol-2-yl)-6,7-dihydro-1H-imidazo[4,5-c]pyridin-5(4H)-yl)-3-(thiazol-2-yl)propan-1-one]
1 to 5 µM | O=C(CCc1nccs1)N1CCc2[nH]cnc2[C@H]1c1nc(-c2ccccc2)cs1 [Example 2143]
> 5 µM | O=C(CCc1nccs1)N1CCc2[nH]cnc2[C@@H]1c1nc(-c2ccccc2)cs1 [Example 2144, (R)-1-(4-(4-phenylthiazol-2-yl)-6,7-dihydro-1H-imidazo[4,5-c]pyridin-5(4H)-yl)-3-(thiazol-2-yl)propan-1-one]
< 0.5 µM | O=C(c1cncs1)N1CCc2[nH]cnc2[C@H]1c1ncc(-c2ccccc2)s1 [Example 2145]
> 5 µM | O=C(c1cncs1)N1CCc2[nH]cnc2[C@@H]1c1ncc(-c2ccccc2)s1 [Example 2146, (R)-(4-(5-phenylthiazol-2-yl)-6,7-dihydro-1H-imidazo[4,5-c]pyridin-5(4H)-yl)(thiazol-5-yl)methanone]
> 5 µM | O=C(CCc1nccs1)N1CCc2[nH]cnc2[C@H]1c1nc(C2CC2)cs1 [Example 2147]
1 to 5 µM | O=C(CCc1nccs1)N1CCc2[nH]cnc2[C@H]1c1ncc(Br)s1 [Example 2148]

AC50 | Structure (SMILES)
> 5 µM | O=C(CCc1nccs1)N1CCc2[nH]cnc2[C@@H]1c1ncc(Br)s1 [Example 2149, (R)-1-(4-(5-bromothiazol-2-yl)-6,7-dihydro-1H-imidazo[4,5-c]pyridin-5(4H)-yl)-3-(thiazol-2-yl)propan-1-one]
1 to 5 µM | O=C(CCc1nccs1)N1CCc2[nH]cnc2[C@H]1c1nc(Br)cs1 [Example 2150]
0.5 to 1 µM | Cc1ncoc1C(=O)N1CC2(CC2)c2[nH]cnc2[C@H]1c1nc2ccccc2s1 [Example 2152, (S)-(4′-(benzo[d]thiazol-2-yl)spiro[cyclopropane-1,7′-imidazo[4,5-c]pyridin]-5′(1′H,4′H,6′H)-yl)(4-methyloxazol-5-yl)methanone]
1 to 5 µM | O=C(c1ccno1)N1CCc2[nH]cnc2[C@H]1c1nc2cc(F)ccc2s1 [Example 2153, (S)-(4-(5-fluorobenzo [d]thiazol-2-yl)-6,7-dihydro-1H-imidazo[4,5-c]pyridin-5(4H)-yl) (iso xazol-5-yl)methanone]
> 5 µM | O=C(c1ccno1)N1CCc2[nH]cnc2[C@@H]1c1nc2cc(F)ccc2s1 [Example 2154, (R)-(4-(5-fluorobenzo [d]thiazol-2-yl)-6,7-dihydro-1H-imidazo[4,5-c]pyridin-5(4H)-yl)(isoxazol-5-yl)methanone]
1 to 5 µM | O=C(c1cnn2cc(CN3CCOCC3)ccc12)N1CCc2[nH]cnc2[C@H]1c1nc2ccccc2s1 [Example 2155]
> 5 µM | O=C(c1cnn2cc(CN3CCOCC3)ccc12)N1CCc2[nH]cnc2[C@@H]1c1nc2ccccc2s1 [Example 2156, (R)-(4-(benzo[d]thiazol-2-yl)-6,7-dihydro-1H-imidazo[4,5-c]pyridin-5(4H)-yl)(6-(morpholinomethyl)pyrazolo[1,5-a]pyridin-3-yl)methanone]
< 0.5 µM | [2H][C@@]1(c2nc3ccccc3s2)c2nc[nH]c2CCN1C(=O)c1cnc(-c2cnn(C)c2)s1 [Example 2157, [(4S)-4-(1,3-benzothiazol-2-yl)-4-deuterio-6,7-dihydro-1H-imidazo[4,5-c]pyridin-5-yl]-[2-(1-methylpyrazol-4-yl)thiazol-5-yl]methanone]
> 5 µM | [2H][C@]1(c2nc3ccccc3s2)c2nc[nH]c2CCN1C(=O)c1cnc(-c2cnn(C)c2)s1 [Example 2158, [(4R)-4-(1,3-benzothiazol-2-yl)-4-deuterio-6,7-dihydro-1H-imidazo[4,5-c]pyridin-5-yl]-[2-(1-methylpyrazol-4-yl)thiazol-5-yl]methanone]
< 0.5 µM | [2H][C@@]1(c2nc3ccccc3s2)c2nc[nH]c2CCN1C(=O)c1ocnc1C [Example 2159, [(4S)-4-(1,3-benzothiazol-2-yl)-4-deuterio-6,7-dihydro-1H-imidazo[4,5-c]pyridin-5-yl]-(4-methyloxazol-5-yl)methanone]
> 5 µM | [2H][C@]1(c2nc3ccccc3s2)c2nc[nH]c2CCN1C(=O)c1ocnc1C [Example 2160, [(4R)-4-(1,3-benzothiazol-2-yl)-4-deuterio-6,7-dihydro-1H-imidazo[4,5-c]pyridin-5-yl]-(4-methyloxazol-5-yl)methanone]
0.5 to 1 µM | [2H]c1nc2c([nH]1)CCN(C(=O)c1cnco1)[C@@H]2c1nc2c(F)cccc2s1 [Example 2161, [(4S)-2-deuterio-4-(4-fluoro-1,3-benzothiazol-2-yl)-1,4,6,7-tetrahydroimidazo[4,5-c]pyridin-5-yl]-oxazol-5-yl-methanone]
1 to 5 µM | O=C(c1cnco1)N1CCc2[nH]cnc2[C@@H]1c1nc2c(F)cccc2s1 [Example 2162]
< 0.5 µM | O=C(c1oc(C2CC2)nc1C(F)(F)F)N1CCc2[nH]cnc2[C@H]1c1nc2ccccc2s1 [Example 2163]
< 0.5 µM | O=C(c1oc(C2CC2)nc1C(F)(F)F)N1CCc2[nH]cnc2[C@@H]1c1nc2ccccc2s1 [Example 2164, (R)-(4-(benzo[d]thiazol-2-yl)-6,7-dihydro-1H-imidazo[4,5-c]pyridin-5(4H)-yl)(2-cyclopropyl-4-(trifluoromethyl)oxazol-5-yl)methanone]
< 0.5 µM | O=C(c1oc(N2CCOCC2)nc1C(F)(F)F)N1CCc2[nH]cnc2[C@H]1c1nc2ccccc2s1 [Example 2165]
< 0.5 µM | O=C(c1ocnc1C1CC1)N1CCCC2NC=NC2[C@H]1c1nc2ccccc2s1 (stereo partly drawn) [Example 2167, ((4S)-4-(benzo[d]thiazol-2-yl)-3a,4,6,7,8,8a-hexahydroimidazo[4,5-c]azepin-5(1H)-yl)(4-cyclopropyloxazol-5-yl)methanone]
